17 compounds from patent US20250326753A1, “DUAL CXCR4-BTK INHIBITORS” (X4 Pharmaceuticals, Inc., priority 2022, published 2025) can be followed below.

The target in assay [1] is BTK (Homo sapiens, UniProt Q06187). In words: BTK Kinase Enzyme System with ADP-Glo Kinase Assay. Set-up: Recombinant full-length human BTK was expressed by baculovirus in Sf9 insect cells; His (N); purchased Promega V9071; host or cells: Sf9 insect cells (baculovirus). Type of assay: biochemical. Particulars: 50 μM ATP. Here is the method:
Inhibition of BTK activity was evaluated using the BTK Kinase Enzyme System in combination with the ADP-Glo™ Kinase Assay Kit (V9071, Promega), according to manufacturer's instructions. Luminescence was detected on a PerkinElmer EnVision Multimode Plate Reader.
Recombinant full-length human BTK was expressed by baculovirus in Sf9 insect cells using an N-terminal His tag, MW ˜78 kDa. Substrate solution contained Poly (4:1 Glu, Tyr) Peptide Substrate. BTK Kinase Buffer consisted of: 40 mM Tris, pH 7.5; 20 mM MgCl2; 0.1 mg/ml BSA; 2 mM MnCl2; 50 μM DTT. ADP-Glo™ Reagents were thawed at ambient temperature; components of BTK Enzyme System, ADP and ATP were thawed on ice. Final assay conditions used 3 ng BTK, 50 μM ATP, and 0.2 mg/mL substrate. Compounds were tested at 11 dose points in duplicates, in 3-fold dilution with top concentration at 10 μM.
Assay performance was evaluated according to the reference compound Staurosporine, which was within 3-5 fold of published results and between different tests, with a Z′ value larger than 0.5, where applicable.
(In general: ADP-Glo first removes unused ATP, then detects ADP through luciferase.)

Assay [2] has as its target T1, CXCR4 (Homo sapiens, UniProt P61073). In words: Chemokine (CXCL12-AF647) binding inhibition assay, Jurkat cells expressing CXCR4. Conditions: CXCL12-AF647 25 ng/ml, read-out: IC50 CXCL-12 binding Jurkat. On the procedure:
Jurkat cells expressing CXCR4 were washed once with assay buffer (Hanks' balanced salt solution with 20 mM HEPES buffer and 0.2% bovine serum albumin, pH 7.4) and then incubated for 15 min at room temperature with the test compounds diluted in assay buffer at dose-dependent concentrations. Subsequently, CXCL12-AF647 (25 ng/ml) was added to the compound-incubated cells. The cells were incubated for 30 min at room temperature. Thereafter, the cells were washed twice in assay buffer, fixed in 1% paraformaldehyde in PBS, and analyzed on the FL4 channel of a FACSCalibur flow cytometer equipped with a 635-nm red diode laser (Becton Dickinson, San Jose, CA, USA).
The percentages of inhibition of CXCL12-AF647 binding were calculated according to the formula: [1−((MFI−MFINC)/(MFIPC−MFINC))]×100 where MFI is the mean fluorescence intensity of the cells incubated with CXCL 12-AF647 in the presence of the inhibitor, MFINC is the mean fluorescence intensity measured in the negative control (i.e., autofluorescence of unlabeled cells), and MFIPC is the mean fluorescence intensity of the positive control (i.e., cells exposed to CXCL12-AF647 alone).

For assay [3], the target named is T2, BTK (Bruton tyrosine kinase) (Homo sapiens, UniProt Q06187).
T2 construct: GST or His (the text leaves open which); purchased Reaction Biology Europe GmbH Lot 012,11; host or cells: Sf9 insect cells or E. coli (not resolved)
T2 sequence (Q06187 whole entry): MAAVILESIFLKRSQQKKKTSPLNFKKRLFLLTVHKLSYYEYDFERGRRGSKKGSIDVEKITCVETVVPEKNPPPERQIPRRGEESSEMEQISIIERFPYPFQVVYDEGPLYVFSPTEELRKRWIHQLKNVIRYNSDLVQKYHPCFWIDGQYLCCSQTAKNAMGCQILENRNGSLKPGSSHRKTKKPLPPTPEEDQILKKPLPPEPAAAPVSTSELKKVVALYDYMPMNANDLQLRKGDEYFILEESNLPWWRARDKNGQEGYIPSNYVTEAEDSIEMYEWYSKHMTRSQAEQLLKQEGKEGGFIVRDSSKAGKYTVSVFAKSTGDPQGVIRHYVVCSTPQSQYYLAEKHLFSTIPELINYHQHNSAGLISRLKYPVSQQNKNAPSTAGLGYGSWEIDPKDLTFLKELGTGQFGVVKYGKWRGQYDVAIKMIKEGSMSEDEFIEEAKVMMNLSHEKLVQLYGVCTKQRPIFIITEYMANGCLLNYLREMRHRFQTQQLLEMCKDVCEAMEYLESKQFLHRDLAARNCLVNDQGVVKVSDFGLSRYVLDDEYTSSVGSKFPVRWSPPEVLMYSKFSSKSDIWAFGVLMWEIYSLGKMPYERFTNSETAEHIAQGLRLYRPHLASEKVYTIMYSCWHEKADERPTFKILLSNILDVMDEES
Nature of the assay: BTK screening assay (33PanQinase Activity Assay, radiometric). Type of assay: biochemical. Conditions: Inhibition of BTK, radiometric 33PanQinase Activity Assay, 3 μM ATP, 10 concentrations in singlicate, top 10 μM; read-out: 33PanQinase ® Radiometric IC50.

Assay [4] addresses T1, CXCR4. In words: Intracellular CXCL-12-induced calcium mobilization assay (FLIPR), U87.CXCR4 cells. Type of assay: cell-based. The arrangement: expressed in transfected cells; host or cells: U87 (U87.CXCR4). Conditions: CXCL-12 25-50 ng/ml, read-out: IC50 CXCL-12 Ca2+ flux U87.CXCR4+. Here is the method: Intracellular calcium mobilization induced by chemokines or chemokine-derived peptides were evaluated using a calcium responsive fluorescent probe and a FLIPR system. The CXCR-4 transfected U87 cell line (U87.CXCR4) cells were seeded in gelatine-coated black-wall 96-well plates at 20,000 cells per well and incubated for 12 hours. Cells were then loaded with the fluorescent calcium probe Fluo-2 acetoxymethyl at 4 μM final concentration in assay buffer (Hanks' balanced salt solution with 20 mM HEPES buffer and 0.2% bovine serum albumin, pH 7.4) for 45 min at 37° C. The intracellular calcium mobilization induced by the CXCL-12 (25-50 ng/ml) was then measured at 37° C. by monitoring the fluorescence as a function of time in all the wells simultaneously using a fluorometric imaging plate reader (FLIPR Tetra, Molecular Devices).
(Calcium flux is commonly read through the fluorescence of an indicator in the cells.)

Assay [5] concerns Ramos cell line. In words: Ramos cell line viability assay (CellTiter-Glo, 72 hr). Type of assay: cell-based. Conditions: Homo sapiens. On the procedure: Inhibition of non-Hodgkin lymphoma B-cell proliferation by compounds of the present invention was evaluated in a Ramos cell line. Ramos is a B lymphocyte cell line that was derived from a patient with Burkitt's Lymphoma.
Cell viability was analyzed with the CellTiter-Glo® Luminescent Cell Viability Assay Kit (G7572, Promega), according to the manufacturer's instruction. Cells were seeded into a 96-well/384-well plate and then incubated in 5% CO2 at 37° C. overnight. Compounds were added to the cells, with 9-10 dose points in duplicates in 3-fold dilution from a top concentration of 30 μM, and incubated in 5% CO2 at 37° C. for 72 hr. The 96-well/384-well plate was equilibrated at room temperature for 30 min. 50 μl/25 μl of CellTiter-Glo® Reagent was added to each well and mixed for 2 min on an orbital shaker to induce cell lysis. The 96-well/384-well plate was incubated at room temperature for 10 min to stabilize luminescent signal. Luminescence was detected on a PerkinElmer EnVision Multimode Plate Reader as relative luminescence units (RLU).
For orientation: ATP-based viability assays read luminescence as a measure of living cells.

Setting [6] is: class, read-out: Ramos viability IC50.

Each structure is given as a SMILES string. pIC50: −log10 of the molar value. Like-named read-outs stand apart in the source and are kept apart here. Some results are limits rather than exact numbers.

T1 sequence (P61073 whole entry): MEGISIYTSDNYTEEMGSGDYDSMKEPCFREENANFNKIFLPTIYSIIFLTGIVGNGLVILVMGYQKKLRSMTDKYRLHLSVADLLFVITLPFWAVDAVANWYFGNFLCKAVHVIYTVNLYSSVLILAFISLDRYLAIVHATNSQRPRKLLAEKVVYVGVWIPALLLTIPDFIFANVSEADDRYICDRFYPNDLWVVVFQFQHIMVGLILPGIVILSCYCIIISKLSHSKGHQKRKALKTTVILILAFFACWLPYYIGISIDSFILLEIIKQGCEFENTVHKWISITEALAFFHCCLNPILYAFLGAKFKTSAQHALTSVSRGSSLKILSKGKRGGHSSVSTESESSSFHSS
Sequence of BTK (Q06187 whole entry): as the sequence (Q06187 whole entry) above

Turning to `Cc1cccnc1[C@H]1CCC[C@@H](c2ncccc2C)N1CCCCNC(=O)c1cc2c(-c3ccc(CNC(=O)c4ccc(C(C)(C)C)cc4)cc3)ncnc2[nH]1` [Compound I-1], the pIC50 (in general, the negative decadic logarithm of the IC50, by convention in mol/L) in assay [1] is 6.00 to 7.00; in assay [2], 7.00 to 9.00; in assay [3] it was 6.00 to 7.00; in assay [4] it was less than 5.60.

With `Cc1cccnc1[C@H]1CCC[C@@H](c2ncccc2C)N1CCCCN(C)C(=O)c1cc2c(-c3ccc(CNC(=O)c4ccc(C(C)(C)C)cc4)cc3)ncnc2[nH]1` [Compound I-2], the pIC50 was 5.60 to 6.00 in assay [1], 7.00 to 9.00 in assay [2], 5.60 to 6.00 in assay [3] and less than 5.60 in assay [4].

As to `Cc1cc(-c2ncnc3[nH]c(C(=O)NCCN4[C@@H](c5ncccc5C)CCC[C@H]4c4ncccc4C)cc23)ccc1CNC(=O)c1ccc(C(C)(C)C)cc1` [Compound I-3], the pIC50 is 7.00 to 9.00 in assay [1], 6.00 to 7.00 in assay [2], 7.00 to 9.00 in assay [3] and less than 5.60 in assay [4].

Consider `Cc1cc(-c2ncnc3[nH]c(C(=O)NCCCN4[C@@H](c5ncccc5C)CCC[C@H]4c4ncccc4C)cc23)ccc1CNC(=O)c1ccc(C(C)(C)C)cc1` [Compound I-4], for which the pIC50 was 7.00 to 9.00 in assay [1], 7.00 to 9.00 in assay [2], 7.00 to 9.00 in assay [3] and less than 5.60 in assay [4].

As to `Cc1cc(-c2ncnc3[nH]c(C(=O)N(C)CCCN4[C@@H](c5ncccc5C)CCC[C@H]4c4ncccc4C)cc23)ccc1CNC(=O)c1ccc(C(C)(C)C)cc1` [Compound I-5], the pIC50 in assay [1] is 6.00 to 7.00; in assay [2] it was 6.00 to 7.00; in assay [3] it was 6.00 to 7.00; in assay [4] it was less than 5.60.

Turning to `Cc1cc(-c2ncnc3[nH]c(C(=O)NCCCCN4[C@@H](c5ncccc5C)CCC[C@H]4c4ncccc4C)cc23)ccc1CNC(=O)c1ccc(C(C)(C)C)cc1` [Compound I-6], the negative-log IC50 (pIC50) was 7.00 to 9.00 in assay [1]; 5.70 to 5.82 in assay [5] (setting [6]); 5.81 in assay [5] (read-out: IC50); 7.00 to 9.00 in assay [2]; 7.00 to 9.00 in assay [3]; less than 5.60 in assay [4].

For `Cc1cccnc1[C@H]1CCC[C@@H](c2ncccc2C)N1CCN1CCN(C(=O)c2ccc(-c3cc4c(-c5cccc(NC(=O)c6ccc(C(C)(C)C)cc6)c5C)ncnc4[nH]3)cc2)CC1` [Compound I-7], the pIC50 is 7.00 to 9.00 in assay [1]; 5.70 to 5.82 in assay [5] (setting [6]); 5.79 in assay [5] (read-out: IC50); 6.00 to 7.00 in assay [2]; 7.00 to 9.00 in assay [3]; less than 5.60 in assay [4].

In the case of `Cc1cccnc1[C@H]1CCC[C@@H](c2ncccc2C)N1CCNC1CN(C(=O)c2ccc(-c3cc4c(-c5cccc(NC(=O)c6ccc(C(C)(C)C)cc6)c5C)ncnc4[nH]3)cc2)C1` [Compound I-8], the pIC50 was 7.00 to 9.00 in assay [1]; no more than 5.40 in assay [5] (setting [6]); 4.95 in assay [5] (read-out: IC50); 7.00 to 9.00 in assay [2]; 7.00 to 9.00 in assay [3]; 6.00 to 7.00 in assay [4].

Consider `Cc1cccnc1[C@H]1CCC[C@@H](c2ncccc2C)N1CCCCNC[C@@H]1CC[C@@H](Nc2ncnc3[nH]cc(C(=O)c4ccc(Oc5ccccc5)cc4Cl)c23)CO1` [Compound I-13, (4-((3R,6S)-6-((4-((2R,6S)-2,6-bis(3-methylpyridin-2-yl)piperidin-1-yl)butylamino)methyl)tetrahydro-2H-pyran-3-ylamino)-7H-pyrrolo[2,3-d]pyrimidin-5-yl) (2-chloro-4-phenoxyphenyl) methanone], for which the pIC50 in assay [1] was 6.00 to 7.00; in assay [2], 6.00 to 7.00; in assay [3] it was 6.00 to 7.00; in assay [4], less than 5.60.

As for `Cc1cccnc1[C@H]1CCC[C@@H](c2ncccc2C)N1CCCCOC(=O)[C@@H]1CC[C@@H](Nc2ncnc3[nH]cc(C(=O)c4ccc(Oc5ccccc5)cc4Cl)c23)CO1` [Compound I-14], the negative-log IC50 (pIC50) in assay [1] was 7.00 to 9.00; in assay [2], less than 5.60; in assay [3], 7.00 to 9.00; in assay [4] it was less than 5.60.

As to `Cc1cccnc1[C@H]1CCC[C@@H](c2ncccc2C)N1CCNC[C@@H]1CC[C@@H](Nc2ncnc3[nH]cc(C(=O)c4ccc(Oc5ccccc5)cc4Cl)c23)CO1` [Compound I-15, (4-((3R,6S)-6-((2-((2R,6S)-2,6-bis(3-methylpyridin-2-yl)piperidin-1-yl)ethylamino)methyl)tetrahydro-2H-pyran-3-ylamino)-7H-pyrrolo[2,3-d]pyrimidin-5-yl) (2-chloro-4-phenoxyphenyl) methanone], the pIC50 is 5.60 to 6.00 in assay [1], 5.60 to 6.00 in assay [2], 5.60 to 6.00 in assay [3] and less than 5.60 in assay [4].

With `Cc1cccnc1[C@H]1CCC[C@@H](c2ncccc2C)N1CCNC(=O)[C@@H]1CC[C@@H](Nc2ncnc3[nH]cc(C(=O)c4ccc(Oc5ccccc5)cc4Cl)c23)CO1` [Compound I-17], the pIC50 was 7.00 to 9.00 in assay [1], 5.60 to 6.00 in assay [2], 7.00 to 9.00 in assay [3] and less than 5.60 in assay [4].

`Cc1cc(-c2ncnc3[nH]c(C(=O)NCCCCN4[C@@H](c5ncccc5C)CCC[C@H]4c4ncccc4C)cc23)ccc1CNC(=O)c1ccc(C(F)(F)F)cc1` [Compound I-46]: the negative logarithm of the IC50 (pIC50) was 7.00 to 9.00 in assay [2], 7.00 to 9.00 in assay [3] and 6.00 to 7.00 in assay [4].

As to `Cc1cccnc1[C@H]1CC(Cn2cc(-c3ccc(Oc4ccccc4)cc3)c3c(N)ncnc32)C[C@@H](c2ncccc2C)N1CCCCN` (stereo partly drawn) [Compound I-61], the negative-log IC50 (pIC50) in assay [2], in assay [3] and in assay [4] was less than 5.60 each time.

For the compound `Cc1cccnc1[C@H]1CCC[C@@H](c2ncccc2C)N1CCn1cc(-c2ccc(Oc3ccccc3)cc2)c2c(N)ncnc21` [Compound I-63], the negative logarithm of the IC50 (pIC50) in assay [2] is 5.60 to 6.00; in assay [3], less than 5.60; in assay [4], less than 5.60.

`Cc1cccnc1[C@H]1CCC[C@@H](c2ncccc2C)N1CCCn1cc(-c2ccc(Oc3ccccc3)cc2)c2c(N)ncnc21` [Compound I-64]: the pIC50 in assay [2], in assay [3] and in assay [4] was less than 5.60 in each case.

For `Cc1cc(-c2ccnc(Nc3cnn(CCN4CCCCC4c4ncccc4C)c3)n2)ccc1CNC(=O)N1CC(OC(C)C)C1` (stereo not drawn) [Compound I-66], the negative logarithm of the IC50 (pIC50) in assay [2] was less than 5.60; in assay [3], 7.00 to 9.00; in assay [4], less than 5.60.
